We go through nine molecules from paper PMC2765255 (Journal of medicinal chemistry, 2009).

Counter-ions that a name gives are not always drawn.

The subject of assay [1] is S. aureus. To be noted: mice treated with 1, compared to control group; cited from earlier work.
Assay [2] addresses S. aureus CrtM (dehydrosqualene synthase) (Staphylococcus aureus, UniProt A9JQL9). Put plainly: CrtM enzyme inhibition assay. The class given is biochemical.
The test system of assay [3] is STX biosynthesis in S. aureus. Put plainly: Staphyloxanthin biosynthesis inhibition assay. The class given is cell-based. Conditions: Staphylococcus aureus, 72 h, read-out: staphyloxanthin IC50.
Assay [4] has as its target human squalene synthase (SQS) (Homo sapiens, UniProt P37268). The class given is biochemical. Conditions: experimental data.

Chain of human squalene synthase (SQS) (P37268 31-370): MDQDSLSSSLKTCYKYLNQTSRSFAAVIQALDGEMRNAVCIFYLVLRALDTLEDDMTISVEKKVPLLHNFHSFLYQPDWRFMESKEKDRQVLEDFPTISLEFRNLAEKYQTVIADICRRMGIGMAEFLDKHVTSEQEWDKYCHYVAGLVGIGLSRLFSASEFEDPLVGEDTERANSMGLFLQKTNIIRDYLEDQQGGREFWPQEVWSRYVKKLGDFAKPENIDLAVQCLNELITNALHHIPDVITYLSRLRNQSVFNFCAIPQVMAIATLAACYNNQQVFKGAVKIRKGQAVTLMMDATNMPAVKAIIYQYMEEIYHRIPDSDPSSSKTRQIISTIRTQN
Chain of S. aureus CrtM (dehydrosqualene synthase) (A9JQL9 whole entry): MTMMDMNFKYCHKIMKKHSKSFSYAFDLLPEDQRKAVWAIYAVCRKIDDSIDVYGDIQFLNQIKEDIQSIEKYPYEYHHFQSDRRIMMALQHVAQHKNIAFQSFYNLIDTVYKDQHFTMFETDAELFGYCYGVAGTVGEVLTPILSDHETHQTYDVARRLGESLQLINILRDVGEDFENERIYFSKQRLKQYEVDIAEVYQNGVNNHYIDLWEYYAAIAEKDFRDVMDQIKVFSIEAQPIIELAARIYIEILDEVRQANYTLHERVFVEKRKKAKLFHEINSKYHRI

In the case of `O=P([O-])([O-])C(CCCc1cccc(Oc2ccccc2)c1)S(=O)(=O)[O-].[K+].[K+].[K+]` (stereo not shown) [Compound 1, 1-Phosphono-4-(3-phenoxyphenyl)butylsulfonic Acid Tripotassium Salt], the “bacterial counts in kidneys reduced” value in assay [1] was 98%.
With `O=P([O-])([O-])[C@H](CCCc1cccc(Oc2ccccc2)c1)S(=O)(=O)[O-].[K+].[K+].[K+]` [Compound (S)-1, (1S)-1-Phosphono-4-(3-phenoxyphenyl)butylsulfonic Acid Tripotassium Salt], the “more active than its (R)-enantiomer in CrtM inhibition” value in assay [2] (fold) is reported as about 30 ×.
A word on the IC50: it is the concentration at which inhibition is half-maximal. For the molecule `O=P(O)(O)C(CCCc1cccc(Oc2ccc(O)cc2)c1)S(=O)(=O)O` (stereo not shown) [Compound 27, 1-Phosphono-4-[3-(4-hydroxyphenoxy)phenyl]butylsulfonic Acid Tripotassium Salt], in assay [3], the IC50 stood at 6.8 µM.
Turning to `O=P([O-])([O-])C(CCCc1ccc(-c2ccc(C(F)(F)F)cc2)cc1)P(=O)([O-])[O-].[K+].[K+].[K+].[K+]` [Compound 3], the “pIC50(CrtM) – pIC50(hSQS)” value in assay [4] is recorded as −1.86 M. Also, in assay [2], the half-inhibitory concentration (IC50) was 0.182 µM.
`O=P([O-])([O-])C(CCc1cccc(Oc2ccccc2)c1)S(=O)(=O)[O-].[K+].[K+].[K+]` (stereo not shown) [Compound 15, 1-Phosphono-3-(3-phenoxyphenyl)propylsulfonic Acid Tripotassium Salt]: the “pIC50(CrtM) – pIC50(hSQS)” value in assay [4] is listed as −2.96 M.
For the molecule `O=P([O-])([O-])C(CCCc1cccc(Oc2ccc(F)cc2)c1)S(=O)(=O)[O-].[K+].[K+].[K+]` (stereo not shown) [Compound 5, 1-Phosphono-4-[3-(4-fluorophenoxy)phenyl]butylsulfonic Acid Tripotassium Salt], the “as active as 1 in CrtM inhibition” value in assay [2] is about 4 ×.
The same measure, in the same setting: for `CCCc1ccc(Oc2cccc(CCCC(P(=O)([O-])[O-])S(=O)(=O)[O-])c2)cc1.[K+].[K+].[K+]` (stereo not shown) [Compound 6, 1-Phosphono-4-[3-(4-propylphenoxy)phenyl]butylsulfonic Acid Tripotassium Salt] the value was about 4 ×.
In the case of `O=P([O-])([O-])C(CCCc1cccc(Oc2ccccc2Cc2ccccc2)c1)S(=O)(=O)[O-].[K+].[K+].[K+]` (stereo not shown) [Compound 8, 1-Phosphono-4-[3-(2-benzylphenoxy)phenyl]butylsulfonic Acid Tripotassium Salt], the “less active than 1 in CrtM inhibition” value in assay [2] is reported as “≈ 5 ×”.
For the molecule `O=P([O-])([O-])C(Cc1cccc(Oc2ccccc2)c1)S(=O)(=O)[O-].[K+].[K+].[K+]` (stereo not shown) [Compound 14, 1-Phosphono-2-(3-phenoxyphenyl)ethylsulfonic Acid Tripotassium Salt], the “pIC50(CrtM) – pIC50(hSQS)” value in assay [4] was −2.66 M.
